Experiment [1] concerns the target KRAS G12D (Homo sapiens, UniProt P01116, G12D). Put plainly: KRAS G12D Probe Displacement Assay (TR-FRET, GDP-loaded). In kind it is binding. From the text:
(§1) The synthetic routes of probe 1 and 2, which have been disclosed in PCT/CN2022/070676, are hereby incorporated herein.
On the technique in general: In TR-FRET formats the signal depends on donor and acceptor labels being close together.

Experiment [2] deals with WT KRAS (Homo sapiens, UniProt P01116). The experiment can be described thus: KRAS WT Probe Displacement Assay (TR-FRET, GDP-loaded). In kind it is binding.
Description: as §1

Setting [3] is: KRAS G12D, read-out: KRAS^G12D Probe Displacement Assay IC50.
The mark [4] stands for this setting: KRAS WT, read-out: KRAS^WT Probe Displacement Assay IC50.
The mark [5] stands for this setting: KRAS^G12D Probe Displacement Assay IC50, KRAS G12D.
Where [6] appears, read: KRAS^WT Probe Displacement Assay IC50, KRAS WT.

SMILES strings stand for the structures. Read-outs that look alike come from different tables or passages of the source. Bounds are passed on as bounds.

What is called IC50 is the concentration that inhibits the measured activity by half.

Sequence of WT KRAS (P01116 1-188 isoform P01116-2): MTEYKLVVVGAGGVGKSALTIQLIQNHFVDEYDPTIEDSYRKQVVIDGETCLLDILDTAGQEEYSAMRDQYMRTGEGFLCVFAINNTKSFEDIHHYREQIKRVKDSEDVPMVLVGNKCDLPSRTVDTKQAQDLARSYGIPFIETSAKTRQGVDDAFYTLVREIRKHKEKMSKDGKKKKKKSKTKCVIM
Sequence of KRAS G12D (P01116 1-188 isoform P01116-2 G12D): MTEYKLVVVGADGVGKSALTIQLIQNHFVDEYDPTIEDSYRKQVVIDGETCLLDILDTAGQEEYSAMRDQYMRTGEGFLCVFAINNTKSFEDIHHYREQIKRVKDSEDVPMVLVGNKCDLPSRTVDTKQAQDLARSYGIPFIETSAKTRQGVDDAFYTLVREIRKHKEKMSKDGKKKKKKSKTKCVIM

For the molecule `Cc1cc(N)cc(-c2nc3c4c(nc(OCC5(CN6C[C@@H]7[C@@H](F)[C@@H]7C6)CC5)nc4c2F)N2C[C@H]4CC[C@H](N4)[C@H]2CCO3)c1C(F)(F)F` [Example 169, 3-((6aR,7S,10R)-1-fluoro-13-((1-(((1R,5S,6S)-6-fluoro-3-azabicyclo[3.1.0]hexan-3-yl)methyl)cyclopropyl)methoxy)-5,6,6a,7,8,9,10,11-octahydro-4-oxa-3,11a,12,14,15-pentaaza-7,10-methanocyclohepta[4,5]cycloocta[1,2,3-de]naphthalen-2-yl)-5-methyl-4-(trifluoromethyl)aniline], the IC50 is below 0.3 nM in experiment [1] (setting [3]) and 3 to 1000 nM in experiment [2] (setting [4]).

As for `C=C1CN2C[C@H](F)C[C@@]2(COc2nc3c4c(nc(-c5cc(N)cc(Cl)c5C(F)(F)F)c(F)c4n2)OCC[C@@H]2[C@@H]4CC[C@H](CN32)N4)C1` [Example 209, 3-chloro-5-((6aR,7S,10R)-1-fluoro-13-(((2R,7aR)-2-fluoro-6-methylenetetrahydro-1H-pyrrolizin-7a(5H)-yl)methoxy)-5,6,6a,7,8,9,10,11-octahydro-4-oxa-3,11a,12,14,15-pentaaza-7,10-methanocyclohepta[4,5]cycloocta[1,2,3-de]naphthalene-2-yl)-4-(trifluoromethyl)aniline], the IC50 in experiment [1] (setting [3]) was below 0.3 nM; in experiment [2] (setting [4]) it was 3 to 1000 nM.

For `Cc1cc(N)cc(-c2nc3c4c(nc(OCC5(CN6CCC7(C6)CC7(F)F)CC5)nc4c2F)N2C[C@H]4CC[C@H](N4)[C@H]2CCO3)c1C(F)(F)F` (mixture of isomers) [Example 90, 3-((6aR,7S,10R)-13-((1-((1,1-difluoro-5-azaspiro [2.4]heptan-5-yl)methyl)cyclopropyl)methoxy)-1-fluoro-5,6,6a,7,8,9,10,11-octahydro-4-oxa-3, 11a,12,14,15-pentaaza[7,10]methanocyclohepta[4,5]cycloocta[1,2,3-de]naphthalen-2-yl)-5-methyl-4-(trifluoromethyl)aniline], the IC50 in experiment [1] (setting [3]) is below 0.3 nM; in experiment [2] (setting [4]) it was 0.3 to 3 nM.

For `Cc1cc(N)cc(-c2nc3c4c(nc(OCC5(CN6CC[C@@H](F)C6)CC5)nc4c2F)N2C[C@H]4CC[C@H](N4)[C@H]2CCO3)c1C(F)(F)F` [Example 86, 3-((6aR,7S,10R)-1-fluoro-13-((1-(((R)-3-fluoropyrrolidin-1-yl)methyl)cyclopropyl)methoxy)-5,6,6a,7,8,9,10,11-octahydro-4-oxa-3,11a,12,14,15-pentaaza-7,10-methanocyclohepta [4,5]cycloocta [1,2,3-de]naphthalen-2-yl)-5-methyl-4-(trifluoromethyl) aniline], the IC50 in experiment [1] (setting [5]) is below 0.3 nM; in experiment [2] (setting [6]) it was 3 to 1000 nM.

On to `Cc1cc(N)cc(-c2nc3c4c(nc(O[C@@H](C)[C@@H]5CCCN5C)nc4c2F)N2C[C@H]4CC[C@H](N4)[C@H]2CCO3)c1C(F)(F)F` [Example 37, 3-((6aR,7S,10R)-1-fluoro-13-((S)-1-((S)-1-methylpyrrolidin-2-yl)ethoxy)-5,6,6a,7,8,9,10,11-octahydro-4-oxa-3,11a,12,14,15-pentaaza-7,10-methanocyclohepta[4,5]cycloocta [1,2,3-de]naphthalen-2-yl)-5-methyl-4-(trifluoromethyl)aniline], for which the IC50 in experiment [1] (setting [3]) was below 0.3 nM; in experiment [2] (setting [4]), 3 to 1000 nM.

`Cc1cc(N)cc(-c2nc3c4c(nc(OCC5(CN(C)C)CC5(F)F)nc4c2F)N2C[C@H]4CC[C@H](N4)[C@H]2CCO3)c1C(F)(F)F` (single isomer, unassigned) [Example 17]: the concentration for half-maximal inhibition (IC50) in experiment [1] (setting [3]) is below 0.3 nM; in experiment [2] (setting [4]), 3 to 1000 nM.

On to `Cc1cc(N)cc(-c2nc3c4c(nc(OCC5(CN6CCC(F)(F)CC6)CC5)nc4c2F)N2C[C@H]4CC[C@H](N4)[C@H]2CCO3)c1C(F)(F)F` [Example 70, 3-((6aR,7S,10R)-13-((1-((4,4-difluoropiperidin-1-yl)methyl)cyclopropyl)methoxy)-1-fluoro-5,6,6a,7,8,9,10,11-octahydro-4-oxa-3,11a,12,14,15-pentaaza-7,10-methanocyclohepta[4,5]cycloocta [1,2,3-de]naphthalen-2-yl)-5-methyl-4-(trifluoromethyl)aniline], for which the IC50 in experiment [1] (setting [3]) is below 0.3 nM; in experiment [2] (setting [4]), 0.3 to 3 nM.

`COC1CN(CC2(COc3nc4c5c(nc(-c6cc(N)cc(C)c6C(F)(F)F)c(F)c5n3)OCC[C@@H]3[C@@H]5CC[C@H](CN43)N5)CC2)C1` [Example 83, 3-((6aR,7S,10R)-1-fluoro-13-((1-((3-methoxyazetidin-1-yl)methyl)cyclopropyl)methoxy)-5,6,6a,7,8,9,10,11-octahydro-4-oxa-3,11a,12,14,15-pentaaza-7,10-methanocyclohepta [4,5]cycloocta [1,2,3-de]naphthalen-2-yl)-5-methyl-4-(trifluoromethyl)aniline]: the IC50 is below 0.3 nM in experiment [1] (setting [3]) and 3 to 1000 nM in experiment [2] (setting [4]).

Regarding `[2H]C([2H])([2H])N1C[C@H](F)C[C@H]1[C@H](C)Oc1nc2c3c(nc(-c4cc(N)cc(C)c4C(F)(F)F)c(F)c3n1)OCC[C@@H]1[C@@H]3CC[C@H](CN21)N3` [Example 221, 3-((6aR,7S,10R)-1-fluoro-13-((S)-1-((2S,4R)-4-fluoro-1-(methyl-d3)pyrrolidin-2-yl)ethoxy)-5,6,6a,7,8,9,10,11-octahydro-4-oxa-3,11a,12,14,15-pentaaza-7,10-methanocyclohepta[4,5]cycloocta[1,2,3-de]naphthalen-2-yl)-5-methyl-4-(trifluoromethyl)aniline], the IC50 in experiment [1] (setting [3]) is below 0.3 nM; in experiment [2] (setting [4]), 3 to 1000 nM.

In the case of `Cc1cc(N)cc(-c2nc3c4c(nc(OCC56C=CCN5C[C@H](F)C6)nc4c2F)N2C[C@H]4CC[C@H](N4)[C@H]2CCO3)c1C(F)(F)F` (single isomer, unassigned) [Example 204], the figures for the IC50 in experiment [1] (setting [3]) and in experiment [2] (setting [4]) were below 0.3 nM and 3 to 1000 nM, respectively.

`Cc1cc(N)cc(-c2nc3c4c(nc(OC[C@@]56C[C@H](F)CN5C[C@H](F)C6)nc4c2F)N2C[C@H]4CC[C@H](N4)[C@H]2CCO3)c1C(F)(F)F` [Example 213, 3-((6aR,7S,10R)-13-(((2R,6S,7as)-2,6-difluorotetrahydro-1H-pyrrolizin-7a(5H)-yl)methoxy)-1-fluoro-5,6,6a,7,8,9,10,11-octahydro-4-oxa-3,11a,12,14,15-pentaaza-7,10-methanocyclohepta[4,5]cycloocta[1,2,3-de]naphthalen-2-yl)-5-methyl-4-(trifluoromethyl)aniline]: the values for the IC50 in experiment [1] (setting [3]) and in experiment [2] (setting [4]) were 0.3 to 3 nM and 3 to 1000 nM, respectively.

As to `Cc1cc(N)cc(-c2nc3c4c(nc(OCC5(CN6CCC(=CF)CC6)CC5)nc4c2F)N2C[C@H]4CC[C@H](N4)[C@H]2CCO3)c1C(F)(F)F` [Example 154, 3-((6aR,7S,10R)-1-fluoro-13-((1-((4-(fluoromethylene)piperidin-1-yl)methyl)cyclopropyl)methoxy)-5,6,6a,7,8,9,10,11-octahydro-4-oxa-3,11a,12,14,15-pentaaza-7,10-methanocyclohepta[4,5]cycloocta [1,2,3-de]naphthalen-2-yl)-5-methyl-4-(trifluoromethyl)aniline], the IC50 in experiment [1] (setting [3]) is below 0.3 nM; in experiment [2] (setting [4]), 0.3 to 3 nM.

Take `Cc1cc(N)cc(-c2nc3c4c(nc(OCC5(CN6CC=C[C@H]6C)CC5)nc4c2F)N2C[C@H]4CC[C@H](N4)[C@H]2CCO3)c1C(F)(F)F` [Example 160, 3-((6aR,7S,10R)-1-fluoro-13-((1-(((R)-2-methyl-2,5-dihydro-1H-pyrrol-1-yl)methyl)cyclopropyl)methoxy)-5,6,6a,7,8,9,10,11-octahydro-4-oxa-3,11a,12,14,15-pentaaza-7,10-methanocyclohepta[4,5]cycloocta[1,2,3-de]naphthalen-2-yl)-5-methyl-4-(trifluoromethyl)aniline]: the IC50 in experiment [1] (setting [3]) was below 0.3 nM; in experiment [2] (setting [4]) it was 3 to 1000 nM.

`Cc1cc(N)cc(-c2nc3c4c(nc(OCC5(CN6CCC7(C6)CC7(F)F)CC5)nc4c2F)N2C[C@H]4CC[C@H](N4)[C@H]2CCO3)c1C(F)(F)F` (single isomer, unassigned) [Example 138]: the IC50 was below 0.3 nM in experiment [1] (setting [3]) and 0.3 to 3 nM in experiment [2] (setting [4]).

For `Cc1cc(N)cc(-c2nc3c4c(nc(OCC5(C)CC(F)CN(C6CCOCC6)C5)nc4c2F)N2C[C@H]4CC[C@H](N4)[C@H]2CCO3)c1C(F)(F)F` (single isomer, unassigned) [Example 233], the IC50 in experiment [1] (setting [3]) was 0.3 to 3 nM; in experiment [2] (setting [4]), 3 to 1000 nM.

As for `Cc1cc(N)cc(-c2nc3c4c(nc(OCC5(CN6CC=CC6)CC5)nc4c2F)N2C[C@H]4CC[C@H](N4)[C@H]2CCO3)c1C(F)(F)F` [Example 111, 3-((6aR,7S,10R)-13-((1-((2,5-dihydro-1H-pyrrol-1-yl)methyl)cyclopropyl)methoxy)-1-fluoro-5,6,6a,7,8,9,10,11-octahydro-4-oxa-3,11a,12,14,15-pentaaza-7,10-methanocyclohepta [4,5]cycloocta [1,2,3-de]naphthalen-2-yl)-5-methyl-4-(trifluoromethyl) aniline], the figures for the IC50 in experiment [1] (setting [5]) and in experiment [2] (setting [6]) were below 0.3 nM and 3 to 1000 nM, respectively.

Take `C=C1CN2C[C@H]3C[C@H]3[C@]2(COc2nc3c4c(nc(-c5cc(N)cc(C)c5C(F)(F)F)c(F)c4n2)OCC[C@@H]2[C@@H]4CC[C@H](CN32)N4)C1` [Example 212, 3-((6aR,7S,10R)-1-fluoro-13-(((1aS,6bR)-5-methylenehexahydrocyclopropa[a]pyrrolizin-6a(4H)-yl)methoxy)-5,6,6a,7,8,9,10,11-octahydro-4-oxa-3,11a,12,14,15-pentaaza-7,10-methanocyclohepta[4,5]cycloocta[1,2,3-de]naphthalen-2-yl)-5-methyl-4-(trifluoromethyl)aniline]: the IC50 was below 0.3 nM in experiment [1] (setting [3]) and 3 to 1000 nM in experiment [2] (setting [4]).

The values are drawn from patent US20260347373A1, “HETEROCYCLIC COMPOUNDS, COMPOSITIONS THEREOF, AND METHODS OF TREATMENT THEREWITH” (BeOne Medicines I GmbH, priority 2023, published 2026).
